Data taken from patent US6444681B1, “Methods and compositions for treating Raynaud's Phenomenon and scleroderma” (The Ohio State University Research Foundation, priority 2000, dated 2002).
Where two headings read alike, the source gives them in different places.

Target: Mouse Tail Artery
Experiment: Antagonism of UK 14,304-induced vasoconstriction in isolated pressurised distal mouse tail artery
Type: cell-based
From the text: Male mice (C57BL6) were euthanized by CO2 asphyxiation. Proximal and/or distal segments of tail artery were then rapidly removed and placed in cold Krebs-Ringer bicarbonate solution (in mM): 118.3 NaCl, 4.7 KCl, 1.2 MgSO4, 1.2 KH2PO4, 2.5 CaCl2, 25.0 NaHCO3, 11. glucose (control solution). The small arteries were cannulated at both ends with glass micropipettes, secured using 12-0 nylon monofilament suture and placed in a microvascuiar chamber (Living Systems, Burlington, Vt.). The arteries were maintained at a constant transmural pressure of 60 mmHg in the absence of flow. The chamber was superfused with control solution and maintained at 37° C., pH 7.4, and gassed with 16% O2-5% CO2-balance N2. The chamber was placed on the stage of an inverted microscope (X20, Nikon TMS-F, Japan) connected to a video camera (Panasonic, CCTV camera, Japan). The vessel image was projected onto a video monitor and the internal diameter continuously determined by a video dimension analyzer (Living Systems Instrumentation, Burlington Vt.) and monitored using a BIOPAC (Santa Barbara, Calif.) data acquisition system (Gateway Dimensions Pentium Computer).
Small arteries were allowed to equilibrate for 30-40 min at a transmural pressure (PTM) of 60 mmHg before addition of α1 and α2-AR agonists and antagonists. Concentration-effect curves to the selective α1-AR agonist, phenylephrine, or the selective α2-AR agonist, UK 14,304 (brimonidine, 5-bromo-N-(4,5-dihydro-1H-imidazol-2-yl)-6-quinoxalinamine) were generated by increasing the concentration of the agonists in half-log increments, once the constriction to the previous concentration had stabilized. Following completion of the concentration-effect curve, the influence of the agonists was terminated by repeatedly exchanging the buffer solution and allowing the artery to return to its stable baseline level.
To evaluate the effect of selective α2-AR antagonists on vasoconstriction, concentration-effect curves to UK 14,304 were determined under control conditions and in the presence of the selective α2A-AR antagonist, BRL 44408 (100 and 1000 nM), the selective α2B-AR antagonist ARC 0239 (50 nM) or the selective α2C-AR antagonist MK 912 (0.3 nM) (Table 1). When these receptor antagonists were used, the preparations were incubated for 30 min with the drugs prior to, and also during, exposure of the arteries to the agonists. When analyzing the influence of cold on α-AR responsiveness, the temperature of the superfusate was decreased to 28° C. for 30 min prior to commencing a concentration effect curve to the constrictor agonists. This provides sufficient time for the effect of cold on adrenergic reactivity to stabilize.
Vasomotor responses were expressed as a percentage change in internal diameter (ID) prior to administrating the agent. Because of the phasic behavior of the vasomotion in distal. tail arteries, the signal was electronically averaged (BIOPAC software, smoothing factor of 2000) in order to obtain diameter measurements. Functional data is expressed as means±SEM for n number of experiments, where n equals the number of animals from which blood vessels were studied. Antagonist dissociation constants (KD) were determined either from Arunlakshana and Schild plots or according to the formula: KD=[Ant]/(CR-1), where [Ant] is the concentration of antagonist, and CR the ratio of agonist-concentrations producing equal responses in the presence and absence of the antagonist. […] Statistical evaluation of the data was performed by Student's t-test for either paired or unpaired observations. When more than two means were compared, analysis of variance was used. If a significant F value was found, Scheffe's test for multiple comparisons was employed to identify differences among groups. Values were considered to be statistically different when P was less than 0.05.

CN1CCC2(CCN3CCc4c(oc5ccccc45)C3C2)N(C)C1=O (centres unmarked) [MK 912]
−log KD (28° C. (cold), n=4): 10.9±0.17 | Kd (28° C. (cold), n=4, read-out: KD): 0.014 nM | Kd (28° C. (cold), versus UK 14,304, distal tail artery, read-out: KD Mouse Tail Artery 28° C.): > 0.014 nM | effect on cold-induced amplification of the α2-AR response (28° C. versus 37° C., UK 14,304): selectively abolished | Kd (37° C. (warm), versus UK 14,304, distal tail artery, read-out: KD Mouse Tail Artery 37° C.): > 0.3 nM | expected shift in concentration-effect curves generated by α2C-AR stimulation (based on the Table 1 KD, antagonist at 0.3 nM): ~6 fold | effect on vasoconstrictor response to UK 14,304 (cold (28° C.), BRL 44408 100 and 1000 nM, ARC 0239 50 nM, MK912 3×10^−10M): dramatically inhibited | effect on vasoconstriction to the α2-AR agonist UK 14,304 (warm temperatures (37° C.), BRL 44408 100 and 1000 nM, ARC 239 50 nM, MK 912 0.3 nM): not inhibited
